Here are results for 24 molecules from patent publication US11814375B2, “Heterocyclic compounds” (Hoffmann-La Roche Inc., priority 2019, dated 2023).

In this assay the target is T1, MAGL (Homo sapiens, UniProt Q99685).
T1 sequence (Q99685 1-303): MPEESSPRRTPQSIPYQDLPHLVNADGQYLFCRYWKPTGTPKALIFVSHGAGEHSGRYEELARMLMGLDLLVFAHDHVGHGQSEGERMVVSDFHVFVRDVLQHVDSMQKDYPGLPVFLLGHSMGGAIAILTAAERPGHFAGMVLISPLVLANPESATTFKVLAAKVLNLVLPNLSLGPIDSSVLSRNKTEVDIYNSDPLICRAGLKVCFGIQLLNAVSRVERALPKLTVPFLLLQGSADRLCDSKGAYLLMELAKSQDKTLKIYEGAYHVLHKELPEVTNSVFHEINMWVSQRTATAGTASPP
The assay can be described thus: 2-AG assay: MAGL inhibitory activity by hydrolysis of 2-arachidonoylglycerol to arachidonic acid, followed by mass spectrometry. The class given is biochemical. The following applies: 8 μM 2-arachidonoylglycerol, 15 min preincubation and 30 min reaction at RT, arachidonic acid/d8-arachidonic acid ratio by MS. Here is the method:
Compounds of formula (I) were profiled for MAGL inhibitory activity by determining the enzymatic activity by following the hydrolysis of the natural substrate 2-arachidonoylglycerol (2-AG) resulting in arachidonic acid, which can be followed by mass spectrometry. This assay is hereinafter abbreviated “2-AG assay”.
The 2-AG assay was carried out in 384 well assay plates (PP, Greiner Cat #784201) in a total volume of 20 μL. Compound dilutions were made in 100% DMSO (VWR Chemicals 23500.297) in a polypropylene plate in 3-fold dilution steps to give a final concentration range in the assay from 12.5 μM to […]. 0.25 μL compound dilutions (100% DMSO) were added to 9 μL MAGL in assay buffer (50 mM TRIS (GIBCO, 15567-027), 1 mM EDTA (Fluka, 03690-100 mL), 0.01% (v/v) Tween. After shaking, the plate was incubated for 15 min at RT. To start the reaction, 10 μL 2-arachidonoylglycerol in assay buffer was added. The final concentrations in the assay was […] and 8 μM 2-arachidonoylglyerol. After shaking and 30 min incubation at RT, the reaction was quenched by the addition of 40 μL of ACN containing 4 μM of d8-arachidonic acid. The amount of arachidonic acid was traced by an online SPE system (Agilent Rapidfire) coupled to a triple quadrupole mass spectrometer (Agilent 6460). A C18 SPE cartridge (G9205A) was used in an ACN/water liquid setup. The mass spectrometer was operated in negative electrospray mode following the mass transitions 303.1→259.1 for arachidonic acid and 311.1→267.0 for d8-arachidonic acid. The activity of the compounds was calculated based on the ratio of intensities [arachidonic acid/d8-arachidonic acid].
With `CC(C)(C)Cn1nncc1-c1ccc(C2CN(C(=O)N3CC[C@@H]4OCC(=O)N[C@@H]4C3)C2)cc1` [Example 36, (4aR, 8aS)-6-[3-[4-[3-(2,2-Dimethylpropyl)triazol-4-yl]phenyl]azetidine-1-carbonyl]-4,4a,5,7,8,8a-hexahydropyrido[4,3-b][1,4]oxazin-3-one], the IC50 was determined as 0.9 nM. To `O=C1CO[C@H]2CCN(C(=O)N3CCN(c4ccc(Oc5ccccc5)cc4)CC3)C[C@H]2N1` [Example 58, (4aR,8aS)-6-[4-(4-Phenoxyphenyl)piperazine-1-carbonyl]-4,4a,5,7,8,8a-hexahydropyrido[4,3-b][1,4]oxazin-3-one] belongs 1100 nM. To `Cn1cc(-c2ccc(C3CN(C(=O)N4CC[C@@H]5OCC(=O)N[C@@H]5C4)C3)cc2)cn1` [Example 45, (4aR,8aS)-6-[3-[4-(1-Methylpyrazol-4-yl)phenyl]azetidine-1-carbonyl]-4,4a,5,7,8,8a-hexahydropyrido[4,3-b][1,4]oxazin-3-one] belongs 134 nM.

With `O=C1CO[C@H]2CCN(C(=O)N3CC(c4ccc(-c5ccnn5CCF)cc4)C3)C[C@H]2N1` [Example 39, (4aR,8aS)-6-[3-[4-[2-(2-Fluoroethyl)pyrazol-3-yl]phenyl]azetidine-1-carbonyl]-4,4a,5,7,8,8a-hexahydropyrido[4,3-b][1,4]oxazin-3-one], the IC50 stood at 6.7 nM. As for `O=C1CO[C@H]2CCN(C(=O)N3CC(c4ccc(Oc5cnccc5Cl)cc4)C3)C[C@H]2N1` [Example 27, (+)-(4aR,8aS)-6-[3-[4-[(4-chloro-3-pyridyl)oxy]phenyl]azetidine-1-carbonyl]-4,4a,5,7,8,8a-hexahydropyrido[4,3-b][1,4]oxazin-3-one], the IC50 was found to be 0.3 nM. To `O=C1CO[C@H]2CCN(C(=O)N3CC(c4ccc(Oc5cccc(C(F)(F)F)c5)cc4)C3)C[C@H]2N1` [Example 22, (+)-(4aR,8aS)-6-[3-[4-[3-(Trifluoromethyl)phenoxy]phenyl]azetidine-1-carbonyl]-4,4a,5,7,8,8a-hexahydropyrido[4,3-b][1,4]oxazin-3-one] belongs 0.06 nM; to `O=C1CO[C@H]2CCN(C(=O)N3CC(c4ccc(Oc5ccccc5)cc4)C3)C[C@H]2N1` [Example 1, (4aR,8aS)-6-(3-(4-Phenoxyphenyl)azetidine-1-carbonyl)hexahydro-2H-pyrido[4,3-b][1,4]oxazin-3(4H)-one], 0.2 nM. For the molecule `O=C1CO[C@H]2CCN(C(=O)N3CC(c4ccc(Oc5nccc(C(F)(F)F)n5)cc4)C3)C[C@H]2N1` [Example 14, (+)-(4aR,8aS)-6-[3-[4-[4-(Trifluoromethyl)pyrimidin-2-yl]oxyphenyl]azetidine-1-carbonyl]-4,4a,5,7,8,8a-hexahydropyrido[4,3-b][1,4]oxazin-3-one], the IC50 stood at 13.4 nM. As to `CC(C)(C)Cc1nc(-c2ccc(C3CN(C(=O)N4CC[C@@H]5OCC(=O)N[C@@H]5C4)C3)cc2)no1` [Example 37, (4aR,8aS)-6-[3-[4-[5-(2,2-Dimethylpropyl)-1,2,4-oxadiazol-3-yl]phenyl]azetidine-1-carbonyl]-4,4a,5,7,8,8a-hexahydropyrido[4,3-b][1,4]oxazin-3-one], the IC50 was found to be 2.4 nM. As for `O=C1CO[C@H]2CCN(C(=O)N3CC(c4ccc(-c5ccc(F)nc5)cc4)C3)C[C@H]2N1` [Example 43, (4aR,8aS)-6-[3-[4-(6-Fluoropyridin-3-yl)phenyl]azetidine-1-carbonyl]-4,4a,5,7,8,8a-hexahydropyrido[4,3-b][1,4]oxazin-3-one], the IC50 stood at 19.3 nM. To `O=C1CO[C@H]2CCN(C(=O)N3CC(c4ccc(-c5cnn(CCF)c5)cc4)C3)C[C@H]2N1` [Example 40, (4aR,8aS)-6-[3-[4-[1-(2-Fluoroethyl)pyrazol-4-yl]phenyl]azetidine-1-carbonyl]-4,4a,5,7,8,8a-hexahydropyrido[4,3-b][1,4]oxazin-3-one] belongs 73.1 nM; to `CC(C)(C)Cn1ccc(-c2ccc(C3CN(C(=O)N4CC[C@@H]5OCC(=O)N[C@@H]5C4)C3)cc2)n1` [Example 32b, (4aR,8aS)-6-[3-[4-[1-(2,2-Dimethylpropyl)pyrazol-3-yl]phenyl]azetidine-1-carbonyl]-4,4a,5,7,8,8a-hexahydropyrido[4,3-b][1,4]oxazin-3-one], 6.5 nM. Under `O=C1CO[C@H]2CCN(C(=O)N3CC(c4ccc(-c5ccn[nH]5)cc4)C3)C[C@H]2N1` [Example 31, (4aR,8aS)-6-[3-[4-(1H-Pyrazol-5-yl)phenyl]azetidine-1-carbonyl]-4,4a,5,7,8,8a-hexahydropyrido[4,3-b][1,4]oxazin-3-one] stands 91.9 nM; under `O=C1CO[C@H]2CCN(C(=O)N3CC(c4ccc(Oc5nccc(C6CC6)n5)cc4)C3)C[C@H]2N1` [Example 25, (+)-(4aR,8aS)-6-[3-[4-(4-Cyclopropylpyrimidin-2-yl)oxyphenyl]azetidine-1-carbonyl]-4,4a,5,7,8,8a-hexahydropyrido[4,3-b][1,4]oxazin-3-one], 4.2 nM; under `Cc1cc(C)n(-c2ccc(C3CN(C(=O)N4CC[C@@H]5OCC(=O)N[C@@H]5C4)C3)cc2)n1` [Example 35, (4aR,8aS)-6-[3-[4-(3,5-Dimethylpyrazol-1-yl)phenyl]azetidine-1-carbonyl]-4,4a,5,7,8,8a-hexahydropyrido[4,3-b][1,4]oxazin-3-one], 17.4 nM. On to `N#Cc1ccccc1Oc1ccc(C2CN(C(=O)N3CC[C@@H]4OCC(=O)N[C@@H]4C3)C2)cc1` [Example 23, (+)-2-[4-[1-[(4aR,8aS)-3-Oxo-4,4a,5,7,8,8a-hexahydropyrido[4,3-b][1,4]oxazine-6-carbonyl]azetidin-3-yl]phenoxy]benzonitrile], for which the IC50 stood at 0.2 nM.

Consider `O=C1CO[C@H]2CCN(C(=O)N3CC(c4ccc(-c5ncccc5Cl)cc4)C3)C[C@H]2N1` [Example 33, (4aR,8aS)-6-[3-[4-(3-Chloro-2-pyridyl)phenyl]azetidine-1-carbonyl]-4,4a,5,7,8,8a-hexahydropyrido[4,3-b][1,4]oxazin-3-one], for which the IC50 came out at 2.7 nM. With `O=C1CO[C@H]2CCN(C(=O)N3CC(c4ccc(Oc5cccnc5)cc4)C3)C[C@H]2N1` [Example 10, (+)-(4aR,8aS)-6-[3-[4-(3-Pyridyloxy)phenyl]azetidine-1-carbonyl]-4,4a,5,7,8,8a-hexahydropyrido[4,3-b][1,4]oxazin-3-one], the IC50 was 2.3 nM. To `O=C1CO[C@H]2CCN(C(=O)N3CC(c4ccc(Oc5ccc(F)cc5)cc4)C3)C[C@H]2N1` [Example 16, (+)-(4aR,8aS)-6-[3-[4-(4-Fluorophenoxy)phenyl]azetidine-1-carbonyl]-4,4a,5,7,8,8a-hexahydropyrido[4,3-b][1,4]oxazin-3-one] belongs 0.05 nM. Under `Cn1ccc(-c2ccc(C3CN(C(=O)N4CC[C@@H]5OCC(=O)N[C@@H]5C4)C3)cc2)n1` [Example 42, (4aR,8aS)-6-[3-[4-(1-Methylpyrazol-3-yl)phenyl]azetidine-1-carbonyl]-4,4a,5,7,8,8a-hexahydropyrido[4,3-b][1,4]oxazin-3-one] stands 153 nM; under `Cc1ccncc1Oc1ccc(C2CN(C(=O)N3CC[C@@H]4OCC(=O)N[C@@H]4C3)C2)cc1` [Example 7, (+)-(4aR,8aS)-6-[3-[4-[(4-Methyl-3-pyridyl)oxy]phenyl]azetidine-1-carbonyl]-4,4a,5,7,8,8a-hexahydropyrido[4,3-b][1,4]oxazin-3-one], 0.5 nM. Consider `O=C1CO[C@H]2CCN(C(=O)N3CCC(c4ccc(Oc5ccccc5)cc4)CC3)C[C@H]2N1` [Example 57, (4aR,8aS)-6-[4-(4-Phenoxyphenyl)piperidine-1-carbonyl]-4,4a,5,7,8,8a-hexahydropyrido[4,3-b][1,4]oxazin-3-one], for which the IC50 stood at 17.8 nM. With `O=C1CO[C@H]2CCN(C(=O)N3CC(c4ccc(Oc5ccncc5F)cc4)C3)C[C@H]2N1` [Example 28, (+)-(4aR,8aS)-6-[3-[4-[(3-Fluoro-4-pyridyl)oxy]phenyl]azetidine-1-carbonyl]-4,4a,5,7,8,8a-hexahydropyrido[4,3-b][1,4]oxazin-3-one], the concentration for half-maximal inhibition (IC50) is 6.3 nM. Under `O=C1CO[C@H]2CCN(C(=O)N3CCC(c4ccc(Oc5ccc(F)cc5)cc4)CC3)C[C@H]2N1` [Example 54, (4aR,8aS)-6-[4-[4-(4-Fluorophenoxy)phenyl]piperidine-1-carbonyl]-4,4a,5,7,8,8a-hexahydropyrido[4,3-b][1,4]oxazin-3-one] stands 10.4 nM.
